In the kinase profiling compilation of Christmann-Franck et al. (2016):

Legend:
DYRK1B (human) = DYRK1B (human) (UniProt Q9Y463); assay: KINOMEscan competition binding; details: compound 10.0 µM
CDK16 (human) = CDK16 (human) (UniProt Q00536); assay: KINOMEscan competition binding; details: compound 10.0 µM
CHUK (human) = CHUK (human) (UniProt O15111); assay: KINOMEscan competition binding; details: compound 10.0 µM
CDK7 (human) = CDK7 (human) (UniProt P50613); assay: KINOMEscan competition binding; details: compound 10.0 µM
IKBKB (human) = IKBKB (human) (UniProt O14920); assay: KINOMEscan competition binding; details: compound 10.0 µM
MAPK15 (human) = MAPK15 (human) (UniProt Q8TD08); assay: KINOMEscan competition binding; details: compound 10.0 µM
GSK3A (human) = GSK3A (human) (UniProt P49840); assay: KINOMEscan competition binding; details: compound 10.0 µM
MAP2K3 (human) = MAP2K3 (human) (UniProt P46734); assay: KINOMEscan competition binding; details: compound 10.0 µM
TAOK3 (human) = TAOK3 (human) (UniProt Q9H2K8); assay: KINOMEscan competition binding; details: compound 10.0 µM
DAPK3 (human) = DAPK3 (human) (UniProt O43293); assay: KINOMEscan competition binding; details: compound 10.0 µM
TAOK1 (human) = TAOK1 (human) (UniProt Q7L7X3); assay: KINOMEscan competition binding; details: compound 10.0 µM
HIPK1 (human) = HIPK1 (human) (UniProt Q86Z02); assay: KINOMEscan competition binding; details: compound 10.0 µM
DAPK1 (human) = DAPK1 (human) (UniProt P53355); assay: KINOMEscan competition binding; details: compound 10.0 µM
CLK4 (human) = CLK4 (human) (UniProt Q9HAZ1); assay: KINOMEscan competition binding; details: compound 10.0 µM
PLK4 (human) = PLK4 (human) (UniProt O00444); assay: KINOMEscan competition binding; details: compound 10.0 µM
PIM2 (human) [1] = molecular target: PIM2 (human) (UniProt Q9P1W9); assay: KINOMEscan competition binding; details: compound 10.0 µM
TGFBR2 (human) = TGFBR2 (human) (UniProt P37173); assay: KINOMEscan competition binding; details: compound 10.0 µM
CLK1 (human) = CLK1 (human) (UniProt P49759); assay: KINOMEscan competition binding; details: compound 10.0 µM
GSK3B (human) = GSK3B (human) (UniProt P49841); assay: KINOMEscan competition binding; details: compound 10.0 µM
CLK2 (human) = CLK2 (human) (UniProt P49760); assay: KINOMEscan competition binding; details: compound 10.0 µM
STK17B (human) = STK17B (human) (UniProt O94768); assay: KINOMEscan competition binding; details: compound 10.0 µM
PIM1 (human) [2] = molecular target: PIM1 (human) (UniProt P11309); assay: KINOMEscan competition binding; details: compound 10.0 µM
DAPK2 (human) = DAPK2 (human) (UniProt Q9UIK4); assay: KINOMEscan competition binding; details: compound 10.0 µM
PIM3 (human) = PIM3 (human) (UniProt Q86V86); assay: KINOMEscan competition binding; details: compound 10.0 µM
STK17A (human) = STK17A (human) (UniProt Q9UEE5); assay: KINOMEscan competition binding; details: compound 10.0 µM
[3] = molecular target: TYK2 JH2 pseudokinase (human) (UniProt P29597); assay: KINOMEscan competition binding; details: compound 10.0 µM
PIM2 (human) [4] = molecular target: PIM2 (human) (UniProt Q9P1W9); assay: SelectScreen, TR FRET
PIM1 (human) [5] = molecular target: PIM1 (human) (UniProt P11309); assay: SelectScreen, TR FRET

Sequence of PIM2 (human) (Q9P1W9 whole entry, looked up): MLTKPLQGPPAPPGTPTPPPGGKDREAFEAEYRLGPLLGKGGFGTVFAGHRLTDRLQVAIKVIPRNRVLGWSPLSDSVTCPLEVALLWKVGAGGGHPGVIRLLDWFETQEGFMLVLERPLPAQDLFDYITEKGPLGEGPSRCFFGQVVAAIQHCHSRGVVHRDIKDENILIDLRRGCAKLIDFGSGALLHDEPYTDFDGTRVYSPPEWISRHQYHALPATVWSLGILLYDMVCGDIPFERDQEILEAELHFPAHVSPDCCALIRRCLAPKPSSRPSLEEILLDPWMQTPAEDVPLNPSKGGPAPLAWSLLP
Sequence of PIM1 (human) (P11309 whole entry, looked up): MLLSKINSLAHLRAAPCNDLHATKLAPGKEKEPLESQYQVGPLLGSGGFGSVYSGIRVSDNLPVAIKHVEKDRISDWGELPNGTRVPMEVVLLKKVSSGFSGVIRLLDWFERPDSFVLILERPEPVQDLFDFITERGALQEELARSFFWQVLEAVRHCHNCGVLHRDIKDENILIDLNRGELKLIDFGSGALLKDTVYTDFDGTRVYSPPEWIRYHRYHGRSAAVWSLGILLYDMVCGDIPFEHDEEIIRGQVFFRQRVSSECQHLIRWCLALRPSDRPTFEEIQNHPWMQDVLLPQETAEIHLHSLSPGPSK
Sequence of CDK7 (human) (P50613 whole entry, looked up): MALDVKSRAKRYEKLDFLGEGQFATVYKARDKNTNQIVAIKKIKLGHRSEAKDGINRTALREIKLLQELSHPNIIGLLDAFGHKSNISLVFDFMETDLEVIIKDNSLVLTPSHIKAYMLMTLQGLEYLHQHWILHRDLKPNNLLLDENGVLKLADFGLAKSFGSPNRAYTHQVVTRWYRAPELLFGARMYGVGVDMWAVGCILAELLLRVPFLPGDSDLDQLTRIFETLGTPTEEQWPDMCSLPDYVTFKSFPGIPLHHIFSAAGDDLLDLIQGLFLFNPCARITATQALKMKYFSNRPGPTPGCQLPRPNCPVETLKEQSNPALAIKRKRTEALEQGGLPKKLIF
Sequence of TAOK1 (human) (Q7L7X3 whole entry, looked up): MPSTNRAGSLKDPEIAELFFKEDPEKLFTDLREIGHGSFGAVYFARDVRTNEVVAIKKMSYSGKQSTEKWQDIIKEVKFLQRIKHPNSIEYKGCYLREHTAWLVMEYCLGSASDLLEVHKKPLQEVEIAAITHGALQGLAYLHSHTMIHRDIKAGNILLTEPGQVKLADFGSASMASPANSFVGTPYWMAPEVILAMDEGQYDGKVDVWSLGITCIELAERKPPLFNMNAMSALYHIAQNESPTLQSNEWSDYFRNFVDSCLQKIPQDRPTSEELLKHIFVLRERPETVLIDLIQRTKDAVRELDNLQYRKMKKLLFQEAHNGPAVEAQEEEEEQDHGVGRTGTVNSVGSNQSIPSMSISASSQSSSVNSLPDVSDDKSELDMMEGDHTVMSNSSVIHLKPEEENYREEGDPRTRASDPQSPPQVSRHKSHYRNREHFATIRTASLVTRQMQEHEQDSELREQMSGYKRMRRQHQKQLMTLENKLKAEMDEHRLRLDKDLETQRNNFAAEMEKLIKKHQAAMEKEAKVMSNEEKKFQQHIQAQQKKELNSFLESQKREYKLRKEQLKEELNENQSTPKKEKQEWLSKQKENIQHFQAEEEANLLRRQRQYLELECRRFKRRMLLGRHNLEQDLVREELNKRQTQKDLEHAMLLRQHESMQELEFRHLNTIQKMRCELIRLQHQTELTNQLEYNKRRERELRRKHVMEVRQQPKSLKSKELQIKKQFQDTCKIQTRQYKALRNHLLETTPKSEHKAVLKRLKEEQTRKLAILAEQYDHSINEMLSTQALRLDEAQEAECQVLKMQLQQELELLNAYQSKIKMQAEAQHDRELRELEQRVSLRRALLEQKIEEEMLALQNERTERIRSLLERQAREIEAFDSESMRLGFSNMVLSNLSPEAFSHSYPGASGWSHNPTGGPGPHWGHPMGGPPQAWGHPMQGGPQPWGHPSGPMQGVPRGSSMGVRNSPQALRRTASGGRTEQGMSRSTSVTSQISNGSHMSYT
Sequence of DAPK2 (human) (Q9UIK4 whole entry, looked up): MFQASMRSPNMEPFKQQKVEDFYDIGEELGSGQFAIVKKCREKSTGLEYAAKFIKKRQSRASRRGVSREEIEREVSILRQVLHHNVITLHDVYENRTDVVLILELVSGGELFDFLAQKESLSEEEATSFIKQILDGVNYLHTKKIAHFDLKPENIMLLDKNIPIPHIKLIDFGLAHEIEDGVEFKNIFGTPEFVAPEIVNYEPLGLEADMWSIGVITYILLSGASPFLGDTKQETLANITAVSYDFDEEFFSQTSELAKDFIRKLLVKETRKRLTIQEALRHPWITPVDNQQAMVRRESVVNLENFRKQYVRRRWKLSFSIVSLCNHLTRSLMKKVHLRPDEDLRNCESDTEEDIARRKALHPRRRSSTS
Sequence of DYRK1B (human) (Q9Y463 whole entry, looked up): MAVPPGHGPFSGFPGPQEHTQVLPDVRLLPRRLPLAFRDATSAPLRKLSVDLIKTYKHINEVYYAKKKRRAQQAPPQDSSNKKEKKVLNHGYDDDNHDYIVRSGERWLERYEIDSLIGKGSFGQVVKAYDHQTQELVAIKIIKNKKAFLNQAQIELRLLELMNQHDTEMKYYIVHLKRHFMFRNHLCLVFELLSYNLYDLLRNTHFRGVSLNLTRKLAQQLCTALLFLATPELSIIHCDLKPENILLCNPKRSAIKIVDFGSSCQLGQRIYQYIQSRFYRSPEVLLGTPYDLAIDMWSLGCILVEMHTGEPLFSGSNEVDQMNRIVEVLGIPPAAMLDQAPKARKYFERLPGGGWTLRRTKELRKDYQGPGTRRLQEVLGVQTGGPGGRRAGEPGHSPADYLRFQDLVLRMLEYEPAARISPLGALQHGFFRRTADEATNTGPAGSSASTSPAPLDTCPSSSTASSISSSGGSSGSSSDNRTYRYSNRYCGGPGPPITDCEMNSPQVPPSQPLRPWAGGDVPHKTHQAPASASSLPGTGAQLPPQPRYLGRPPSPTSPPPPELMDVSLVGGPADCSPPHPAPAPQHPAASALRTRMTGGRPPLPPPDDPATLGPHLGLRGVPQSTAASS
Sequence of CLK2 (human) (P49760 whole entry, looked up): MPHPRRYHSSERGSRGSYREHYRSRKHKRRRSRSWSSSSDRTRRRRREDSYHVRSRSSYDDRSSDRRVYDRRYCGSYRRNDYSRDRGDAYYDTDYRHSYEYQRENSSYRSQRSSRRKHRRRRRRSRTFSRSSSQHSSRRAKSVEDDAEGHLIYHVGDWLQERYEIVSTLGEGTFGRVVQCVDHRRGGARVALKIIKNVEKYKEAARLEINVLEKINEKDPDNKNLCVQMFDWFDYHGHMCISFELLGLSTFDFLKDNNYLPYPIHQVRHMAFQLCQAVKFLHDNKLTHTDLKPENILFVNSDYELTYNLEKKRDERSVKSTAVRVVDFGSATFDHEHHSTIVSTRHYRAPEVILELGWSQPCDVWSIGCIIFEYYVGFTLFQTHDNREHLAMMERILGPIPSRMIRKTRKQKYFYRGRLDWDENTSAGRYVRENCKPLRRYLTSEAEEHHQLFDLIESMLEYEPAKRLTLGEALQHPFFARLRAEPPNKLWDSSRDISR
Sequence of TGFBR2 (human) (P37173 whole entry, looked up): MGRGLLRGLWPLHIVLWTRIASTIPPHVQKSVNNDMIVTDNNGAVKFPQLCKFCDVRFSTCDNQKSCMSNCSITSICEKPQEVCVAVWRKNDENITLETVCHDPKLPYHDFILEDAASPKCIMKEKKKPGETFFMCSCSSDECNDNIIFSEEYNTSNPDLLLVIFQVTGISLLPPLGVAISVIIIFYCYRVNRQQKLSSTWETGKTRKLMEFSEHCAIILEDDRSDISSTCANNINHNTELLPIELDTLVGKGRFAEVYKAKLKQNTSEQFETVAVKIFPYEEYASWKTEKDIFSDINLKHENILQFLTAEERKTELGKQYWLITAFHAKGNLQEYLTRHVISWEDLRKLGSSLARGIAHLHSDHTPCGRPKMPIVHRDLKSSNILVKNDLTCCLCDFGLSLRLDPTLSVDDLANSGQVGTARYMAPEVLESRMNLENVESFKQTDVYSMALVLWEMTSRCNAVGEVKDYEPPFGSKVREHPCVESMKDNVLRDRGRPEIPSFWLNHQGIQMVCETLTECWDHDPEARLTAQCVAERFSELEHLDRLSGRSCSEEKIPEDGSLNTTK
Sequence of DAPK3 (human) (O43293 whole entry, looked up): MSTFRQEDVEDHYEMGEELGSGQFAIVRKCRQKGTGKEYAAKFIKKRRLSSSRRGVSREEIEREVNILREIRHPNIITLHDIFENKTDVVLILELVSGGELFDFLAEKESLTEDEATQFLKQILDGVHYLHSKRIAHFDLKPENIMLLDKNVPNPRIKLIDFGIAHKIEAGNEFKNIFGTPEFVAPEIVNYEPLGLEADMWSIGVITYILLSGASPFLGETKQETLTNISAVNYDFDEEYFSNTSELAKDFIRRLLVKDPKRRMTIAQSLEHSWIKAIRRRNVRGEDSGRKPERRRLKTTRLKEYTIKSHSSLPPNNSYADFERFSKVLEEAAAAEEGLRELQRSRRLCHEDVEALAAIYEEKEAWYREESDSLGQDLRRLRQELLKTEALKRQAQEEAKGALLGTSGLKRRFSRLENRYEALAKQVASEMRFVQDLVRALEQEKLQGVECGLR

In the case of `N=C1NC(=O)/C(=C/c2ccc(-c3ccc(F)cc3)o2)S1`, the kinase still bound, per cent of control (DYRK1B (human)) is reported as 33%, the kinase still bound, per cent of control (CDK16 (human)) is reported as 9.4% and the kinase still bound, per cent of control (CHUK (human)) is reported as 27%. It also gave a kinase still bound, per cent of control (CDK7 (human)) of 15%, a kinase still bound, per cent of control (IKBKB (human)) of 29% and a kinase still bound, per cent of control (MAPK15 (human)) of 0.95%. The kinase still bound, per cent of control (GSK3A (human)) was 4.3%, the kinase still bound, per cent of control (MAP2K3 (human)) was 5.8% and the kinase still bound, per cent of control (TAOK3 (human)) was 6.6%. It also gave a kinase still bound, per cent of control (DAPK3 (human)) of 14%, a kinase still bound, per cent of control (TAOK1 (human)) of 0.3% and a kinase still bound, per cent of control (HIPK1 (human)) of 0.2%. It also gave a kinase still bound, per cent of control (DAPK1 (human)) of 15%, a kinase still bound, per cent of control (CLK4 (human)) of 28% and a kinase still bound, per cent of control (PLK4 (human)) of 21%. It also gave a kinase still bound, per cent of control (PIM2 (human) [1]) of 1.2%, a kinase still bound, per cent of control (TGFBR2 (human)) of 7.8% and a kinase still bound, per cent of control (CLK1 (human)) of 26%. It also gave a kinase still bound, per cent of control (GSK3B (human)) of 30%, a kinase still bound, per cent of control (CLK2 (human)) of 16% and a kinase still bound, per cent of control (STK17B (human)) of 2.2%. It also gave a kinase still bound, per cent of control (PIM1 (human) [2]) of 3.4%, a kinase still bound, per cent of control (DAPK2 (human)) of 5.1% and a kinase still bound, per cent of control (PIM3 (human)) of 3.7%. It also gave a kinase still bound, per cent of control (STK17A (human)) of 0.45%, a kinase still bound, per cent of control [3] of 34% and an IC50 (PIM2 (human) [4]) of 0.59 µM. It also gave an IC50 (PIM1 (human) [5]) of 1.75 µM.
